{"source": "patent US20140271734A1", "about": "“BILE ACID RECYCLING INHIBITORS FOR TREATMENT OF BARRETT'S ESOPHAGUS AND GASTROESOPHAGEAL REFLUX DISEASE” (LUMENA PHARMACEUTICALS, INC., priority 2013, published 2014)", "key": {"[1]": {"tested_on": "postprandial serum bile acids AUC", "experiment": "Inhibition of the postprandial rise in SBA, LUM001 compared to cholestyramine", "format": "in vivo, dogs", "protocol": "LUM001 was dissolved in 0.2% Tween 80 at concentrations that required the administration of 0.2 ml dosing solution/kg of body weight at each dose tested. Cholestyramine was suspended in water at concentrations that required the administration of 2.5 ml/kg (500 mg/kg) and 1 ml/kg (200 mg/kg). The appropriate volume of solution formulation for each animal was placed into a gelatin capsule, Torpac Inc., size 13, Batch 594, East Hanover, N.J. and administered per os. Test compounds were administered as single oral doses to groups of dogs, 3 to 9 dogs per group at varying dosages. LUM001 and cholestyramine were administered in solution 30 minutes prior to feeding and blood samples collected at 30-minute intervals for four hours after feeding. LUM001 was given at 0, 0.02, 0.05, 0.2, 0.6, 2, 5 or 15 mg/kg. Cholestyramine was administered at 200 or 500 mg/kg. […] No dog received any one compound dosage more than once. SBA was measured by an enzymatic assay. SBA values are expressed as μg of total bile acids/ml of serum."}, "fecal bile acids": {"tested_on": "fecal bile acids", "experiment": "Fecal bile acid excretion, ascending multiple oral doses of LUM001 in healthy adults", "format": "in vivo, human", "protocol": "This Phase 1 study was a randomized, double-blind, placebo-controlled study of ascending multiple oral doses of LUM001 in healthy, adult subjects. This study was conducted at a single center. There were 13 LUM001 dosing panels: 10, 20, 60, 100, and 20 mg every morning (qAM) (2) (i.e., the regimen was tested a second time in the study), 5 mg every evening (qPM), 0.5, 1, 2.5, 5, 2.5 (2), 5 (2), and 0.5 to 5 mg qAM dose titration. Most of the dosing panels included subjects treated with matching placebo. No subject participated in more than 1 dosing panel. Subjects were randomized into the study by dosing panel, and all subjects within a dosing panel received study medication at approximately the same time each day. Safety was reviewed for each panel before subsequent panels were initiated. A total of 167 subjects were treated for 28 days, 147 with LUM001 and 20 with placebo.\nDuring the Pretreatment Screening Period (Days −31 through −4), subjects were seen on an outpatient basis to determine study eligibility based on enrollment criteria. On Day −3, eligible subjects were admitted to the research facility during the morning. Subjects were confined to the research facility from Days −3 to 30. During the entire period of confinement to the research facility, subjects received a study diet composed of 35% of caloric intake from fat, 15% from protein, and 50% from carbohydrates. The total daily caloric intake (based on the subject's weight) was fixed and divided into 3 equicaloric equal-fat-containing meals. The fixed fat composition and caloric content of the diet was designed to reduce inter- and intra-subject variability of serum total bile acids (SBA) and FBA, lipid parameters, and fat absorption parameters.\nOn Day 1 of the Treatment Period, subjects who qualified for enrollment were randomized in the order in which they were admitted to the research facility. On the same day, subjects began receiving study medication. Subsequent analyses included clinical and laboratory safety assessments and profiles of PK, PD, and lipid parameters. The safety and tolerability of LUM001 were evaluated by physical examination, ascertainment of adverse signs and symptoms, and clinical laboratory studies. Blood and urine samples were obtained for measurement of LUM001 plasma, whole blood, and urine concentrations for subsequent PK analyses. Efficacy responses included measuring FBA as a surrogate marker for the inhibition of intestinal bile acid transport. For the qAM dosing panels, LUM001 or placebo was administered each day of the treatment period (28 days) immediately prior to the morning meal at approximately 08:00 and after any necessary blood work was drawn.\nFecal samples were collected for all panels except the dose-titration panel, 2.5 (2) and 5 mg (2), on Days 9 through 14 and 23 through 28 (data shown in FIG. 6; *p<0.05; **p<0.01 compared to placebo). Twenty-four hour FBA excretions were quantified by Pharmacia for Days 9 through 14 and 23 through 28. Feces were collected in a 24-hour collection container beginning at 08:00 and ending 24 hours later. This procedure was followed on Days 9 through 14 and 23 through 28, with new collection containers issued for each 24-hour period. The weight of each 24-hour fecal collection was recorded on the CRFs. Specimens were stored in 24-hour containers, frozen at approximately −80° C. prior to analysis.\nAn aliquot for each 24-hour fecal sample collected on Days 23 through 28 was combined, homogenized, and analyzed for bile acid species concentrations by ANAPHARM. The fecal bile acid species evaluated include chenodeoxycholic acid, cholic acid, deoxycholic acid, and lithocholic acid."}, "[2]": {"tested_on": "Alanine Aminotransferase (ALAT)", "experiment": "Plasma alanine aminotransferase in ZDF rats, week 3", "format": "in vivo", "details": "twice daily oral gavage"}, "plasma bile acid": {"tested_on": "plasma bile acid", "experiment": "Plasma bile acid concentrations in ZDF rats", "format": "in vivo", "details": "SC-435 1, 10 or 30 mg/kg; LUM002 0.3, 1, 3, 10 or 30 mg/kg; oral gavage twice a day, end of second week, n=4", "protocol": "Male Zucker diabetic fatty rats (ZDF/GmiCrl-fa/fa) were purchased from Charles River (Raleigh, N.C.) and housed under controlled conditions (12:12 light-dark cycle, 24° C. and 50% relative humidity) with free access to rodent food (Purina 5008, Harlan Teklad, Indianapolis, Ind.). All rats arrived at seven weeks of age (±3 days). After a one-week acclimation period, rats were anesthetized with isoflurane (Abbott Laboratories, IL) and tail-vein blood samples were collected at 9 am without fasting. Blood glucose levels were measured using a glucometer (Bayer, Leverkusen, Germany). In order to ensure balanced treatment groups, ZDF rats were assigned to six treatment groups based upon baseline glucose: vehicle (0.5% HPMC, 0.1% Tween80) and five doses of 264W94 (0.001, 0.01, 0.1, 1, 10 mg/kg). All treatments were given via oral gavage twice a day and animals were followed for two weeks with blood samples collected from tail vein at the end of each week at 9 am without fasting. Fecal samples were collected for 24 hours during the second week of treatment.\nNon-esterified fatty acids (NEFA), bile acids, and bile acids in fecal extraction were measured using the Olympus AU640 clinical chemistry analyzer (Beckman Coulter, Irving, Tex.).\nMale ZDF rats (n=4) were administered vehicle, SC-435 (1, 10 or 30 mg/kg) or LUM002 (0.3, 1, 3, 10 or 30 mg/kg) by oral gavage twice a day for 2 weeks. Plasma bile acid levels were determined at the end of the second week. […] Data are expressed as mean values±SEM."}}, "data": [{"smiles": "CCCCC1(CCCC)CS(=O)(=O)c2ccc(N(C)C)cc2[C@@H](c2ccc(OCc3ccc(C[N+]45CCN(CC4)CC5)cc3)cc2)[C@H]1O", "note": "[LUM001]", "values": [{"measurement": "Inhibition of postprandial serum bile acids AUC (0-240 min) compared to cholestyramine", "setting": "[1]; LUM001 0.02-15 mg/kg vs cholestyramine 200 or 500 mg/kg, single oral doses", "value": "superior inhibition of postprandial serum bile acids AUC, at a lower dose"}, {"measurement": "Serum bile acids", "setting": "[1]; single oral dose 0.02-15 mg/kg 30 minutes prior to feeding", "value": "significantly decreased serum bile acids"}, {"measurement": "Mean Daily Total Fecal Bile Acids Excretion", "setting": "fecal bile acids; 0.5 mg (n=16), Days 9-14", "value": 266.8, "unit": "μmole/24 hr"}, {"measurement": "Mean Daily Total Fecal Bile Acids Excretion", "setting": "fecal bile acids; 0.5 mg (n=16), Days 23-28", "value": 294.9, "unit": "μmole/24 hr"}, {"measurement": "Mean Daily Total Fecal Bile Acids Excretion", "setting": "fecal bile acids; 1.0 mg (n=8), Days 9-14", "value": 642.7, "unit": "μmole/24 hr"}, {"measurement": "Mean Daily Total Fecal Bile Acids Excretion", "setting": "fecal bile acids; 1.0 mg (n=8), Days 23-28", "value": 780.3, "unit": "μmole/24 hr"}, {"measurement": "Mean Daily Total Fecal Bile Acids Excretion", "setting": "fecal bile acids; 2.5 mg (n=8), Days 9-14", "value": 478.0, "unit": "μmole/24 hr"}, {"measurement": "Mean Daily Total Fecal Bile Acids Excretion", "setting": "fecal bile acids; 2.5 mg (n=8), Days 23-28", "value": 590.7, "unit": "μmole/24 hr"}, {"measurement": "Mean Daily Total Fecal Bile Acids Excretion", "setting": "fecal bile acids; 5 mg (n=8), Days 9-14", "value": 1105.1, "unit": "μmole/24 hr"}, {"measurement": "Mean Daily Total Fecal Bile Acids Excretion", "setting": "fecal bile acids; 5 mg (n=8), Days 23-28", "value": 848.4, "unit": "μmole/24 hr"}, {"measurement": "Mean Daily Total Fecal Bile Acids Excretion", "setting": "fecal bile acids; 5 mg qPM (n=15), Days 9-14", "value": 496.9, "unit": "μmole/24 hr"}, {"measurement": "Mean Daily Total Fecal Bile Acids Excretion", "setting": "fecal bile acids; 5 mg qPM (n=15), Days 23-28", "value": 593.3, "unit": "μmole/24 hr"}, {"measurement": "Mean Daily Total Fecal Bile Acids Excretion", "setting": "fecal bile acids; 10 mg (n=8), Days 9-14", "value": 1237.0, "unit": "μmole/24 hr"}, {"measurement": "Mean Daily Total Fecal Bile Acids Excretion", "setting": "fecal bile acids; 10 mg (n=8), Days 23-28", "value": 1126.0, "unit": "μmole/24 hr"}, {"measurement": "Mean Daily Total Fecal Bile Acids Excretion", "setting": "fecal bile acids; 20 mg (n=16), Days 9-14", "value": 902.9, "unit": "μmole/24 hr"}, {"measurement": "Mean Daily Total Fecal Bile Acids Excretion", "setting": "fecal bile acids; 20 mg (n=16), Days 23-28", "value": 865.2, "unit": "μmole/24 hr"}, {"measurement": "Mean Daily Total Fecal Bile Acids Excretion", "setting": "fecal bile acids; 60 mg (n=8), Days 9-14", "value": 973.4, "unit": "μmole/24 hr"}, {"measurement": "Mean Daily Total Fecal Bile Acids Excretion", "setting": "fecal bile acids; 60 mg (n=8), Days 23-28", "value": 964.5, "unit": "μmole/24 hr"}, {"measurement": "Mean Daily Total Fecal Bile Acids Excretion", "setting": "fecal bile acids; 100 mg (n=8), Days 9-14", "value": 2405.7, "unit": "μmole/24 hr"}, {"measurement": "Mean Daily Total Fecal Bile Acids Excretion", "setting": "fecal bile acids; 100 mg (n=8), Days 23-28", "value": 1718.3, "unit": "μmole/24 hr"}, {"measurement": "Fecal Bile Acids", "setting": "fecal bile acids; healthy adults, multiple oral doses, 28 days", "value": "significant increase in fecal bile acids"}]}, {"smiles": "CCCC[C@]1(CC)CS(=O)(=O)c2ccc(N(C)C)cc2[C@@H](c2cccc(NC(=O)N[C@@H]3O[C@H](COS(=O)(=O)[O-])[C@@H](O)[C@H](OCc4ccccc4)[C@H]3O)c2)[C@H]1O.CCO.O.[K+]", "note": "[LUM002, potassium((2R,3R,4S,5R,6R)-4-benzyloxy-6-{3-[3-((3S,4R,5R)-3-butyl-7-dimethylamino-3-ethyl-4-hydroxy-1,1-dioxo-2,3,4,5-tetrahydro-1H-benzo[b]thiepin-5-yl)-phenyl]-ureido}-3,5-dihydroxy-tetrahydro-pyran-2-ylmethyl)sulphate ethanolate, hydrate]", "values": [{"measurement": "Plasma alanine aminotransferase (ALAT)", "setting": "[2]", "value": "Neither LUM002 nor SC-435 caused statistically significant reductions"}, {"measurement": "Plasma bile acid levels", "setting": "plasma bile acid", "value": "decreased for all doses"}]}]}
